From the NIST ThermoML archive (doi:10.1021/je049556i)
± gives the expanded uncertainty stated by the source.

Legend:
[1] = xn = mol fraction of the nth substance listed; conditions: 101 kPa, Liquid
[2] = 101 kPa, Liquid

CC1OC(C)OC(C)O1 (stereo unspecified) [2,4,6-trimethyl-1,3,5-trioxane] + CCO
[1]
Conditions | mass density, 298.15 K [kg/m3] | mass density, 303.15 K [kg/m3] | mass density, 308.15 K [kg/m3] | viscosity, 298.15 K [mPa·s] | viscosity, 303.15 K [mPa·s] | viscosity, 308.15 K [mPa·s]
x1 = 0.0372 | 802.48 ± 2.3 | 798.21 ± 2.4 | 793.84 ± 2.4 | 1.071 ± 0.043 | 0.979 ± 0.04 | 0.886 ± 0.036
x1 = 0.0801 | 820.65 ± 2.3 | 816.3 ± 2.4 | 811.97 ± 2.4 | 1.059 ± 0.042 | 0.966 ± 0.039 | 0.876 ± 0.035
x1 = 0.1299 | 839.52 ± 2.3 | 835.19 ± 2.4 | 830.81 ± 2.4 | 1.045 ± 0.041 | 0.952 ± 0.038 | 0.866 ± 0.035
x1 = 0.1885 | 859.12 ± 2.3 | 854.68 ± 2.4 | 850.28 ± 2.4 | 1.031 ± 0.04 | 0.938 ± 0.037 | 0.855 ± 0.034
x1 = 0.2589 | 879.57 ± 2.3 | 875.01 ± 2.3 | 870.45 ± 2.4 | 1.016 ± 0.039 | 0.924 ± 0.036 | 0.844 ± 0.033
x1 = 0.3433 | 900.45 ± 2.2 | 895.77 ± 2.3 | 890.94 ± 2.4 | 1.003 ± 0.038 | 0.912 ± 0.035 | 0.835 ± 0.032
x1 = 0.4485 | 922.04 ± 2.1 | 917.27 ± 2.2 | 912.16 ± 2.3 | 0.994 ± 0.037 | 0.903 ± 0.034 | 0.828 ± 0.031
x1 = 0.5823 | 944.05 ± 2 | 939.04 ± 2.1 | 933.74 ± 2.2 | 0.995 ± 0.036 | 0.904 ± 0.033 | 0.829 ± 0.03
x1 = 0.6816 | 957.34 ± 2 | 952.18 ± 2 | 946.76 ± 2.1 | 1.006 ± 0.035 | 0.915 ± 0.033 | 0.837 ± 0.03
x1 = 0.7582 | 966.15 ± 1.9 | 960.83 ± 2 | 955.25 ± 2 | 1.022 ± 0.036 | 0.929 ± 0.033 | 0.849 ± 0.03
x1 = 0.8003 | 970.54 ± 1.9 | 965.15 ± 2 | 959.44 ± 2 | 1.033 ± 0.036 | 0.939 ± 0.033 | 0.857 ± 0.03
x1 = 0.8452 | 974.98 ± 1.9 | 969.45 ± 1.9 | 963.6 ± 2 | 1.048 ± 0.036 | 0.951 ± 0.033 | 0.868 ± 0.03
x1 = 0.8932 | 979.38 ± 1.9 | 973.8 ± 1.9 | 967.86 ± 1.9 | 1.065 ± 0.036 | 0.967 ± 0.033 | 0.881 ± 0.031
x1 = 0.9446 | 983.9 ± 1.8 | 978.26 ± 1.9 | 972.13 ± 1.9 | 1.088 ± 0.036 | 0.986 ± 0.033 | 0.897 ± 0.031
x1 = 1 | 988.35 ± 1.8 | 982.64 ± 1.8 | 976.44 ± 1.9 | 1.107 ± 0.037 | 1.001 ± 0.034 | 0.907 ± 0.031

CCCCO [butan-1-ol]
[2]
Conditions | mass density [kg/m3] | viscosity [mPa·s]
298.15 K | 805.84 ± 2.4 | 2.618 ± 0.1
303.15 K | 802 ± 2.4 | 2.297 ± 0.089
308.15 K | 798.2 ± 2.4 | 2.032 ± 0.08

CCCCO [butan-1-ol] + CC1OC(C)OC(C)O1
[1], x2 = 0
Conditions | mass density [kg/m3] | viscosity [mPa·s]
298.15 K | 805.84 ± 2.4 | 2.618 ± 0.1
303.15 K | 802 ± 2.4 | 2.297 ± 0.089
308.15 K | 798.2 ± 2.4 | 2.032 ± 0.08

CCO [ethanol]
[2]
Conditions | mass density [kg/m3] | viscosity [mPa·s]
298.15 K | 785.06 ± 2.3 | 1.083 ± 0.044
303.15 K | 780.74 ± 2.4 | 0.99 ± 0.04
308.15 K | 776.48 ± 2.4 | 0.895 ± 0.037

CCO [ethanol] + CC1OC(C)OC(C)O1
[1], x2 = 0
Conditions | mass density [kg/m3] | viscosity [mPa·s]
298.15 K | 785.06 ± 2.3 | 1.083 ± 0.044
303.15 K | 780.74 ± 2.4 | 0.99 ± 0.04
308.15 K | 776.48 ± 2.4 | 0.895 ± 0.037

CCCO [propan-1-ol]
[2]
Conditions | mass density [kg/m3] | viscosity [mPa·s]
298.15 K | 799.6 ± 2.4 | 1.943 ± 0.076
303.15 K | 794.64 ± 2.4 | 1.725 ± 0.068
308.15 K | 790.53 ± 2.4 | 1.537 ± 0.061

CCCO [propan-1-ol] + CC1OC(C)OC(C)O1
[1], x2 = 0
Conditions | mass density [kg/m3] | viscosity [mPa·s]
298.15 K | 799.6 ± 2.4 | 1.943 ± 0.076
303.15 K | 794.64 ± 2.4 | 1.725 ± 0.068
308.15 K | 790.53 ± 2.4 | 1.537 ± 0.061
